“Also recorded” adds a separate entry of the source.
What was measured:
[1] = in vitro; type: cell-based; settings: human
Method: Human hepatocellular carcinoma (HepG2) and Chinese Hamster Ovary (CHO-K1) cells obtained from the American Type Culture Collection (Manassas, VA, USA) were cultured in Eagle’s medium (MEM, Gibco®, Waltham, MA, USA) containing 10% fetal bovine serum (FBS) plus 100 µg/mL streptomycin and 100 µg/mL penicillin at 37 °C in a 5% CO2 atmosphere. Logarithmic-phase cells were used in all the experiments.
Fresh HepG2 and CHO-K1 cells were seeded at a density of 1 × 10^4/well. […] Briefly, after treatment, the culture medium was replaced by 90 μL fresh culture medium and 10 μL WST-1 reagent and incubated at 37 °C and 5% CO2 for 3 h. The absorbance was then measured at 440 nm according to the kit protocol.

[2] = system: Salmonella enterica serovar Typhimurium TA100; assay: Salmonella/microsome assay, TA100
[3] = system: S. typhimurium TA97, TA98, TA100, TA102 and TA104 strains; assay: Salmonella/microsome assay, overall outcome; settings: all strains, −S9 and +S9; summarized outcome
Method: The mutagenicity reverse mutation test was carried out to investigate the potential of 13 (a–d) to induce genetic mutation in S. typhimurium TA97, TA98, TA100, TA102 and TA104 strains. The test was carried out according to the pre-incubation method, both in the absence and presence of a metabolic activation system (4% S9 mix, Aroclor-pre-induced, from Moltox Inc., Boone, NC, USA). DMSO 10% served as the negative control while known mutagens were used as the positive control substances. […] A dose-finding test was carried out with and without the metabolic activation system (S9 mix) for each tester strain.
For the assays without metabolic activation, 0.5 mL of 0.1 mol/L sodium-phosphate buffer (pH 7.4) was added, and for the assays in the presence of metabolic activation, 0.5 mL S9 mix was mixed with 0.1 mL culture medium (2 × 10^8 cells/mL) plus 0.1 mL of each compound solutions. The mixtures were incubated in a shaker at 37 °C (pre-incubation). After 30 min pre-incubation under light protection, the mixture was added to and mixed with 2 mL top agar containing 0.05 mmol/L L-histidine and D-biotin for the S. typhimurium strains. Each of these was then spread on a minimum glucose agar plate. After the top agar solidified, the plates were incubated at 37 °C for 60–72 h. Each tester strain was assayed in triplicate, and the number of revertant colonies was counted for each tester strain and treatment group [58].

[4] = system: Salmonella enterica serovar Typhimurium TA104; assay: Salmonella/microsome assay, TA104
Method: (§1) Salmonella enterica serovar Typhimurium (S. typhimurium) strains TA97, TA98, TA100, TA104 and TA102 from the authors’ stock were used as described in the mutagenicity assay.
(§2) To determine the cytotoxic effects, after 30 min pre-incubation, the assay mixtures were diluted in 0.9% NaCl (w/v) to obtain a suspension containing 2 × 10^2 cells/mL. […] The plates were then incubated at 37 °C for 24 h and the colonies counted. All the experiments were conducted in triplicate and were repeated at least twice. Statistical differences between the groups were analyzed by a two-way ANOVA (p < 0.05) and Tukey’s post hoc test.

[5] = Salmonella/microsome assay, TA104; settings: Salmonella enterica serovar Typhimurium, S. typhimurium TA104 with S9 mix, LC50 (bacterial cytotoxicity) TA104, presence of S9 mix
Method: as §1, §2

[6] = system: Salmonella enterica serovar Typhimurium TA97; assay: Salmonella/microsome assay, TA97
Method: as §1, §2

[7] = system: CHO-K1 and HepG2 cell lineages; type: cell-based
Method: Fresh HepG2 and CHO-K1 cells were seeded at the density of 1 × 10^5 cells/mL into 24-well plates (1 mL/per well). The compounds 13 (a–d) were then added to the medium to final concentrations of 500, 1000 and 2000 µM and incubation continued for 3 h or 24 h. DMSO 10% was used as the negative control, and, BaP (80 µM) for HepG2 and MMC (5 µM) for CHO-K1 were the positive controls. After exposure to the compounds, the cells were incubated for more than 24 h under growth conditions before quantification of the micronuclei and cytotoxicity. The cytogenetic studies were carried out in triplicate as described previously (see [51]). In order to determine the mitotic index and the number of cells with micronuclei, the medium was replaced by a cold methanol-glacial acetic acid (3:1) fixative for 30 min, and the cells then rinsed with distilled water for 2 min and air dried. The fixed cells were stained with 4,6-diamidino-2-phenylindole (DAPI) ([…]) dissolved in McIlvaine buffer (0.1 M citric acid plus 0.2 M Na2HPO4, pH 7.0) for 60 min, washed with McIlvaine buffer for 5 min, briefly rinsed with distilled water and mounted in glycerol. To determine the mitotic index and the number of cells with micronuclei, 1000 cells per well (3000 cells per concentration) were analyzed under a fluorescence microscope. The results for micronuclei were presented as the percentage of cells containing micronuclei in the 3000 cells/concentration group analyzed. Cells that glowed brightly and had homogenous nuclei were considered as having normal phenotypic morphology. Apoptotic nuclei were identified by the condensed chromatin at the periphery of the nuclear membrane or by fragmented nuclear body morphology. […] Once again, 3000 cells were counted and the percentage of viable cells was evaluated, discounting apoptotic and necrotic cells. Statistical differences between the groups were analyzed by two-way ANOVA (p < 0.01) and Tukey’s post hoc test.

[8] = in vitro; settings: Salmonella enterica serovar Typhimurium, pH 7.4
[9] = system: Salmonella enterica serovar Typhimurium TA98; assay: Salmonella/microsome assay, TA98
Method: as §1, §2

[10] = system: CHO-K1 cells; type: cell-based, Chinese Hamster
Method: Fresh HepG2 and CHO-K1 cells were seeded at the density of 1 × 10^5 cells/mL into 24-well plates (1 mL/per well). The compounds 13 (a–d) were then added to the medium to final concentrations of 500, 1000 and 2000 µM and incubation continued for 3 h or 24 h. DMSO 10% was used as the negative control, and, BaP (80 µM) for HepG2 and MMC (5 µM) for CHO-K1 were the positive controls. After exposure to the compounds, the cells were incubated for more than 24 h under growth conditions before quantification of the micronuclei and cytotoxicity. The cytogenetic studies were carried out in triplicate as described previously (see [51]). In order to determine the mitotic index and the number of cells with micronuclei, the medium was replaced by a cold methanol-glacial acetic acid (3:1) fixative for 30 min, and the cells then rinsed with distilled water for 2 min and air dried. The fixed cells were stained with 4,6-diamidino-2-phenylindole (DAPI) ([…]) dissolved in McIlvaine buffer (0.1 M citric acid plus 0.2 M Na2HPO4, pH 7.0) for 60 min, washed with McIlvaine buffer for 5 min, briefly rinsed with distilled water and mounted in glycerol. To determine the mitotic index and the number of cells with micronuclei, 1000 cells per well (3000 cells per concentration) were analyzed under a fluorescence microscope. The results for micronuclei were presented as the percentage of cells containing micronuclei in the 3000 cells/concentration group analyzed. Cells that glowed brightly and had homogenous nuclei were considered as having normal phenotypic morphology. Apoptotic nuclei were identified by the condensed chromatin at the periphery of the nuclear membrane or by fragmented nuclear body morphology. Necrotic cells presented chromatin forms with irregularly shaped aggregates, a pyknotic nucleus (shrunken and darkly stained) and cell membrane disruption, with cellular debris spilled into the extracellular milieu. Once again, 3000 cells were counted and the percentage of viable cells was evaluated, discounting apoptotic and necrotic cells. Statistical differences between the groups were analyzed by two-way ANOVA (p < 0.01) and Tukey’s post hoc test.

[11] = system: P. falciparum parasites (W2 clone) chloroquine-resistant; assay: Antiplasmodial activity, anti-HRPII assay; type: cell-based, Plasmodium falciparum
Excerpt: P. falciparum W2 clone was maintained in continuous culture as previously described. […] Prior to testing, the ring-stage parasites were synchronized using sorbitol.
The test quantification was read at 450 nm on a spectrophotometer (SpectraMax340PC384, Molecular Devices Sunnyvale, CA, USA), and the drug activity was expressed as the half-maximal inhibitory concentration (EC50) compared to the drug-free controls using the curve-fitting software Origin 8.0 (OriginLab Corporation, Northampton, MA, USA).

SMILES: CC(=O)Nc1ccccc1C(F)(F)C(=O)NCC[C@@H]1C[C@H](CC(=O)OC(C)(C)C)OC(C)(C)O1 [Compound 13a, tert-Butyl 2-((4R,6R)-6-(2-(2-(2-acetamidophenyl)-2,2-difluoroacetamido)ethyl)-2,2-dimethyl-1,3-dioxan-4-yl)acetate]
- CC50 at 24 h [1]: > 1000 µM
- revertant His+ colonies TA100 ([2]; +S9, 3 µM): 211 ± 37
- revertant His+ colonies TA100 ([2]; +S9, 15 µM): 223 ± 15
- revertant His+ colonies TA100 ([2]; +S9, 30 µM): 241 ± 36
- revertant His+ colonies TA100 ([2]; +S9, 150 µM): 244 ± 14
- revertant His+ colonies TA100 ([2]; +S9, 300 µM): 270 ± 45
- revertant His+ colonies TA100 ([2]; +S9, 1500 µM): 290 ± 31
- revertant His+ colonies TA100 ([2]; −S9, 3 µM): 117 ± 43
- revertant His+ colonies TA100 ([2]; −S9, 15 µM): 136 ± 13
- revertant His+ colonies TA100 ([2]; −S9, 30 µM): 139 ± 13
- revertant His+ colonies TA100 ([2]; −S9, 150 µM): 142 ± 5
- revertant His+ colonies TA100 ([2]; −S9, 300 µM): 162 ± 37
- revertant His+ colonies TA100 ([2]; −S9, 1500 µM): 179 ± 34
- Bacterial Mutagenicity [3]: Yes
- revertant His+ colonies TA104 ([4]; +S9, 3 µM): 390 ± 49
- revertant His+ colonies TA104 ([4]; +S9, 15 µM): 417 ± 15
- revertant His+ colonies TA104 ([4]; +S9, 30 µM): 467 ± 19
- revertant His+ colonies TA104 ([4]; +S9, 150 µM): 330 ± 9
- revertant His+ colonies TA104 ([4]; +S9, 300 µM): 268 ± 37
- revertant His+ colonies TA104 ([4]; +S9, 1500 µM): Cytotoxic
- revertant His+ colonies TA104 ([4]; −S9, 3 µM): 264 ± 27
- revertant His+ colonies TA104 ([4]; −S9, 15 µM): 307 ± 18
- revertant His+ colonies TA104 ([4]; −S9, 30 µM): 314 ± 26
- revertant His+ colonies TA104 ([4]; −S9, 150 µM): 315 ± 36
- revertant His+ colonies TA104 ([4]; −S9, 300 µM): 316 ± 33
- revertant His+ colonies TA104 ([4]; −S9, 1500 µM): 350 ± 21
- CC50 at 30 min [5]: 1280 ± 21.1 µM
- revertant His+ colonies TA97 ([6]; +S9, 3 µM): 214 ± 21
- revertant His+ colonies TA97 ([6]; +S9, 15 µM): 217 ± 9
- revertant His+ colonies TA97 ([6]; +S9, 30 µM): 235 ± 23
- revertant His+ colonies TA97 ([6]; +S9, 150 µM): 237 ± 26
- revertant His+ colonies TA97 ([6]; +S9, 300 µM): 237 ± 4
- revertant His+ colonies TA97 ([6]; +S9, 1500 µM): 290 ± 28
- revertant His+ colonies TA97 ([6]; −S9, 3 µM): 78 ± 6
- revertant His+ colonies TA97 ([6]; −S9, 15 µM): 82 ± 8
- revertant His+ colonies TA97 ([6]; −S9, 30 µM): 79 ± 8
- revertant His+ colonies TA97 ([6]; −S9, 150 µM): 69 ± 10
- revertant His+ colonies TA97 ([6]; −S9, 300 µM): 80 ± 11
- revertant His+ colonies TA97 ([6]; −S9, 1500 µM): 90 ± 9
- Mammalian Cell Genotoxicity [7]: Yes
- CC50 [8]: 1480 ± 56.1 µM
- revertant His+ colonies TA98 ([9]; +S9, 3 µM): 25 ± 8
- revertant His+ colonies TA98 ([9]; +S9, 15 µM): 25 ± 4
- revertant His+ colonies TA98 ([9]; +S9, 30 µM): 26 ± 5
- revertant His+ colonies TA98 ([9]; +S9, 150 µM): 27 ± 1
- revertant His+ colonies TA98 ([9]; +S9, 300 µM): 33 ± 1
- revertant His+ colonies TA98 ([9]; +S9, 1500 µM): 36 ± 3
- revertant His+ colonies TA98 ([9]; −S9, 3 µM): 24 ± 3
- revertant His+ colonies TA98 ([9]; −S9, 15 µM): 29 ± 6
- revertant His+ colonies TA98 ([9]; −S9, 30 µM): 31 ± 8
- revertant His+ colonies TA98 ([9]; −S9, 150 µM): 32 ± 3
- revertant His+ colonies TA98 ([9]; −S9, 300 µM): 52 ± 4
- revertant His+ colonies TA98 ([9]; −S9, 1500 µM): 61 ± 5
- mutagenicity to TA98 ([9]; −S9, at concentrations above 300 µM): significant mutagenicity; also recorded: enhanced the number of revertants
- micronuclei formation (genotoxicity) [10]: genotoxic
- SI ([11]; LC50 (HepG2)/EC50 (P. falciparum)): Inactive
- EC50 ([11]; Plasmodium falciparum, W2, 24 h, P. falciparum W2 clone, 24 h at 37 °C, read-out: EC50): > 62 µM
- Antiplasmodial Activity ([11]; summarized outcome): No

From PMC10301432, “Antiplasmodial, Trypanocidal, and Genotoxicity In Vitro Assessment of New Hybrid α,α-Difluorophenylacetamide-statin Derivatives” (Pharmaceuticals, 2023)
